Results as given in PMC9329436, “Optimization of the 4-anilinoquin(az)oline scaffold as epidermal growth factor receptor (EGFR) inhibitors for chordoma utilizing a toxicology profiling assay platform” (Scientific Reports, 2022).
Like-named read-outs stand apart in the source and are kept apart here.

Columns and labels:
U-CH1 chordoma cell line = test: Cell viability assay (alamarBlue, 72 h), U-CH1; format: cell-based, human; settings: n = 4, 72 h
Procedure, shortened: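 Cells grown in 4:1 IMDM:RPMI with 10% FBS on gel-coated flasks, dosed in quadruplicate 24 h after seeding in 384-well plates.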

[1] = tested on: UM-Chor1 patient-derived chordoma cell line; test: Cell viability assay (alamarBlue, 72 h), UM-Chor1; format: cell-based, human; settings: n = 4, 72 h
Procedure, shortened: (§1)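 Patient-derived chordoma lines and WS1 fibroblasts seeded in 384-well plates, dosed in quadruplicate 24 h after plating.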

[2] = tested on: U-CH12 patient-derived chordoma cell line; test: Cell viability assay (alamarBlue, 72 h), U-CH12; format: cell-based, human; settings: n = 4, 72 h
Procedure, shortened: as §1

[3] = tested on: WS1 human fibroblast cell line; test: Cell viability assay, WS1 toxicity control; format: cell-based; settings: n = 4, nonspecific toxicity control
Procedure, shortened: as §1

[4] = biological target: 320 wild-type protein kinases (Homo sapiens, UniProt O75582); format: biochemical; settings: kinase RPS6KA5, singlicate
Source text: (§2) Table S4. Profiling of two compounds at two concentrations against 320 wild-type protein kinases; singlicate measurement; Residual activities (% of control).

[5] = biological target: 320 wild-type protein kinases (Homo sapiens, UniProt P08069); format: biochemical; settings: IGF1-R, singlicate
Source text: as §2

[6] = biological target: 320 wild-type protein kinases (Homo sapiens, UniProt P08922); format: biochemical; settings: kinase ROS, singlicate
Source text: as §2

[7] = biological target: 320 wild-type protein kinases (Homo sapiens, UniProt P30291); format: biochemical; settings: kinase WEE1, singlicate
Source text: as §2

[8] = biological target: 320 wild-type protein kinases (Homo sapiens, UniProt P37023); format: biochemical; settings: singlicate
Source text: as §2

[9] = biological target: T1, 320 wild-type protein kinases (Homo sapiens, UniProt P51817); format: biochemical; settings: kinase PRKX, singlicate
T1 sequence (P51817 1-358): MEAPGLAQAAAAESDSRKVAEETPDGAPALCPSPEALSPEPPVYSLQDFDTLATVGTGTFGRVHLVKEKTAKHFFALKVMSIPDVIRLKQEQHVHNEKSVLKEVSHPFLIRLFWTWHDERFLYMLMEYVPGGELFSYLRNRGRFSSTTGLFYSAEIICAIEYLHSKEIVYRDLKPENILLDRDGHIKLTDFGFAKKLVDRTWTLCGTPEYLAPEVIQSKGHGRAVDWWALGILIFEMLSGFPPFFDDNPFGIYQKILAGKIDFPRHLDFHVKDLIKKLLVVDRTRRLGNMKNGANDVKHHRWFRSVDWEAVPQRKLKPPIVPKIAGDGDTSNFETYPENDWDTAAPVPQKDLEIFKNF
Source text: as §2

[10] = biological target: T2, 320 wild-type protein kinases (Homo sapiens, UniProt Q8WTQ7); format: biochemical; settings: singlicate
T2 sequence (Q8WTQ7 1-553): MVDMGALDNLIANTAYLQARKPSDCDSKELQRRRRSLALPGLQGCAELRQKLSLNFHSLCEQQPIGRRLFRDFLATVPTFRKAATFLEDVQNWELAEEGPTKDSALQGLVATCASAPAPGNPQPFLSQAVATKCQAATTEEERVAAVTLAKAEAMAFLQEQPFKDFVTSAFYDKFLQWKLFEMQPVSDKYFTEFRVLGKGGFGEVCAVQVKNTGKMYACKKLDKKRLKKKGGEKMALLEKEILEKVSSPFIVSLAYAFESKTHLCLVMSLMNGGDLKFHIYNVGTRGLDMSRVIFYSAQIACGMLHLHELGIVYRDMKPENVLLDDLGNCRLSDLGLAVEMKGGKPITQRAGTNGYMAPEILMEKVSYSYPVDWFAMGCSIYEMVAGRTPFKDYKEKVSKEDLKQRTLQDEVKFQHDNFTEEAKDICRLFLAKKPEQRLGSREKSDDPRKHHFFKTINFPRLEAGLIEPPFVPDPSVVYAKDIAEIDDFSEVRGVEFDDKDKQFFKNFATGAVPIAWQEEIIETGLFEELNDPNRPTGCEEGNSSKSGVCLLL
Source text: as §2

[11] = biological target: T3, 320 wild-type protein kinases (Homo sapiens, UniProt Q9HBY8); format: biochemical; settings: kinase SGK2, singlicate
T3 sequence (Q9HBY8 1-367): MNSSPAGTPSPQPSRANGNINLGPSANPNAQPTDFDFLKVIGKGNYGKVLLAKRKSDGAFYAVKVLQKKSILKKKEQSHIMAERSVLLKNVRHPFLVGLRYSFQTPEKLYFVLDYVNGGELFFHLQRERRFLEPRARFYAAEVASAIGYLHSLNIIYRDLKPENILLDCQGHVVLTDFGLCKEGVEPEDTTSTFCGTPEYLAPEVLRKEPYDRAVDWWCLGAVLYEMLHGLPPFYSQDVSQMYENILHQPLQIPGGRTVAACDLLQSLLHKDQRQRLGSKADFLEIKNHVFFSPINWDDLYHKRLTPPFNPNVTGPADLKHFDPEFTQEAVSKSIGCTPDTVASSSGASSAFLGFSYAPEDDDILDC
Source text: as §2

[12] = biological target: 320 wild-type protein kinases (Homo sapiens, UniProt Q9NYL2); format: biochemical; settings: kinase ZAK, singlicate
Source text: as §2

EGFR = EGFR (Homo sapiens, UniProt P00533); test: ProQinase in-cell EGFR assay (EGFR phosphorylation in A431 cells); format: cell-based; set-up: This cell line endogenously expresses a high level of EGFR; endogenous in cells; host or cells: A431
Source text: In addition, we ran an EGFR in-cell target engagement assay, measuring in-cell EGFR phosphorylation, using the human epidermoid carcinoma cell line A431. This cell line endogenously expresses a high level of EGFR, and stimulation of these cells with human epidermal growth factor (EGF) results in receptor tyrosine autophosphorylation.

[13] = ProQinase in-cell EGFR assay, A431 cells, n = 1

320 wild-type protein kinases (Homo sapiens, UniProt P37023), sequence (P37023 22-503): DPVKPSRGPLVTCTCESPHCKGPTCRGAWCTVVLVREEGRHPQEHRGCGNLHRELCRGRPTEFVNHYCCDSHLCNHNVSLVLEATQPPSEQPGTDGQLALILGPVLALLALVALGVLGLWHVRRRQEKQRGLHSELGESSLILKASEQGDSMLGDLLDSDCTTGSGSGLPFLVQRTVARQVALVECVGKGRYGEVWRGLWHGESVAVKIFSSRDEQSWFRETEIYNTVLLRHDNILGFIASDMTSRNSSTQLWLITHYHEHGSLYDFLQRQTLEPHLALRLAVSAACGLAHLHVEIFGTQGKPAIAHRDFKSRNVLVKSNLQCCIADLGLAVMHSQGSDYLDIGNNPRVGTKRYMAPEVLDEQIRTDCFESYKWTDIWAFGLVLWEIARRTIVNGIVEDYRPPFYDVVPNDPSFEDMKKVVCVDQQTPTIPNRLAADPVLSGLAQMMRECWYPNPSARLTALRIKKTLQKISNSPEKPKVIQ
320 wild-type protein kinases (Homo sapiens, UniProt O75582), sequence (O75582 whole entry): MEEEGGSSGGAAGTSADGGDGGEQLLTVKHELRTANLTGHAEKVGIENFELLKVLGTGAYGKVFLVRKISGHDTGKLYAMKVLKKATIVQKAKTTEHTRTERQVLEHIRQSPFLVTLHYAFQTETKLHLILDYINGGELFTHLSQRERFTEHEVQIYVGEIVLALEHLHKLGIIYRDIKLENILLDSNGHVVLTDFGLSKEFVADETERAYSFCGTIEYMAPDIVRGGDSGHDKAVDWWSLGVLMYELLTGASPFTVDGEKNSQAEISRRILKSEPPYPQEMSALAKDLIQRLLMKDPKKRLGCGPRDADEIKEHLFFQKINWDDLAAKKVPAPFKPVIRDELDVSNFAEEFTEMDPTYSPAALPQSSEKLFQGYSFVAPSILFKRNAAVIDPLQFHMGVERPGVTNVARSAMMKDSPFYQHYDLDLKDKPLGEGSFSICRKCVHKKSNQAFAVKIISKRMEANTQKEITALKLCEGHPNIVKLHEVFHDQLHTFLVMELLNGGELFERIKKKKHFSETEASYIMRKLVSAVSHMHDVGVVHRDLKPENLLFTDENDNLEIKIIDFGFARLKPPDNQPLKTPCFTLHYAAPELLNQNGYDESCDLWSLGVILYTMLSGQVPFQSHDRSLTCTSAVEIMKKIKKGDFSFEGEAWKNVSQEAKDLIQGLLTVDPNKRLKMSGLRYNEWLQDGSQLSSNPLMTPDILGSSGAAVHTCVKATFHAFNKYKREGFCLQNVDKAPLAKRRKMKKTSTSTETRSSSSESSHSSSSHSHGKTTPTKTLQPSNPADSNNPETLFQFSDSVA
320 wild-type protein kinases (Homo sapiens, UniProt P08922), sequence (P08922 28-2347): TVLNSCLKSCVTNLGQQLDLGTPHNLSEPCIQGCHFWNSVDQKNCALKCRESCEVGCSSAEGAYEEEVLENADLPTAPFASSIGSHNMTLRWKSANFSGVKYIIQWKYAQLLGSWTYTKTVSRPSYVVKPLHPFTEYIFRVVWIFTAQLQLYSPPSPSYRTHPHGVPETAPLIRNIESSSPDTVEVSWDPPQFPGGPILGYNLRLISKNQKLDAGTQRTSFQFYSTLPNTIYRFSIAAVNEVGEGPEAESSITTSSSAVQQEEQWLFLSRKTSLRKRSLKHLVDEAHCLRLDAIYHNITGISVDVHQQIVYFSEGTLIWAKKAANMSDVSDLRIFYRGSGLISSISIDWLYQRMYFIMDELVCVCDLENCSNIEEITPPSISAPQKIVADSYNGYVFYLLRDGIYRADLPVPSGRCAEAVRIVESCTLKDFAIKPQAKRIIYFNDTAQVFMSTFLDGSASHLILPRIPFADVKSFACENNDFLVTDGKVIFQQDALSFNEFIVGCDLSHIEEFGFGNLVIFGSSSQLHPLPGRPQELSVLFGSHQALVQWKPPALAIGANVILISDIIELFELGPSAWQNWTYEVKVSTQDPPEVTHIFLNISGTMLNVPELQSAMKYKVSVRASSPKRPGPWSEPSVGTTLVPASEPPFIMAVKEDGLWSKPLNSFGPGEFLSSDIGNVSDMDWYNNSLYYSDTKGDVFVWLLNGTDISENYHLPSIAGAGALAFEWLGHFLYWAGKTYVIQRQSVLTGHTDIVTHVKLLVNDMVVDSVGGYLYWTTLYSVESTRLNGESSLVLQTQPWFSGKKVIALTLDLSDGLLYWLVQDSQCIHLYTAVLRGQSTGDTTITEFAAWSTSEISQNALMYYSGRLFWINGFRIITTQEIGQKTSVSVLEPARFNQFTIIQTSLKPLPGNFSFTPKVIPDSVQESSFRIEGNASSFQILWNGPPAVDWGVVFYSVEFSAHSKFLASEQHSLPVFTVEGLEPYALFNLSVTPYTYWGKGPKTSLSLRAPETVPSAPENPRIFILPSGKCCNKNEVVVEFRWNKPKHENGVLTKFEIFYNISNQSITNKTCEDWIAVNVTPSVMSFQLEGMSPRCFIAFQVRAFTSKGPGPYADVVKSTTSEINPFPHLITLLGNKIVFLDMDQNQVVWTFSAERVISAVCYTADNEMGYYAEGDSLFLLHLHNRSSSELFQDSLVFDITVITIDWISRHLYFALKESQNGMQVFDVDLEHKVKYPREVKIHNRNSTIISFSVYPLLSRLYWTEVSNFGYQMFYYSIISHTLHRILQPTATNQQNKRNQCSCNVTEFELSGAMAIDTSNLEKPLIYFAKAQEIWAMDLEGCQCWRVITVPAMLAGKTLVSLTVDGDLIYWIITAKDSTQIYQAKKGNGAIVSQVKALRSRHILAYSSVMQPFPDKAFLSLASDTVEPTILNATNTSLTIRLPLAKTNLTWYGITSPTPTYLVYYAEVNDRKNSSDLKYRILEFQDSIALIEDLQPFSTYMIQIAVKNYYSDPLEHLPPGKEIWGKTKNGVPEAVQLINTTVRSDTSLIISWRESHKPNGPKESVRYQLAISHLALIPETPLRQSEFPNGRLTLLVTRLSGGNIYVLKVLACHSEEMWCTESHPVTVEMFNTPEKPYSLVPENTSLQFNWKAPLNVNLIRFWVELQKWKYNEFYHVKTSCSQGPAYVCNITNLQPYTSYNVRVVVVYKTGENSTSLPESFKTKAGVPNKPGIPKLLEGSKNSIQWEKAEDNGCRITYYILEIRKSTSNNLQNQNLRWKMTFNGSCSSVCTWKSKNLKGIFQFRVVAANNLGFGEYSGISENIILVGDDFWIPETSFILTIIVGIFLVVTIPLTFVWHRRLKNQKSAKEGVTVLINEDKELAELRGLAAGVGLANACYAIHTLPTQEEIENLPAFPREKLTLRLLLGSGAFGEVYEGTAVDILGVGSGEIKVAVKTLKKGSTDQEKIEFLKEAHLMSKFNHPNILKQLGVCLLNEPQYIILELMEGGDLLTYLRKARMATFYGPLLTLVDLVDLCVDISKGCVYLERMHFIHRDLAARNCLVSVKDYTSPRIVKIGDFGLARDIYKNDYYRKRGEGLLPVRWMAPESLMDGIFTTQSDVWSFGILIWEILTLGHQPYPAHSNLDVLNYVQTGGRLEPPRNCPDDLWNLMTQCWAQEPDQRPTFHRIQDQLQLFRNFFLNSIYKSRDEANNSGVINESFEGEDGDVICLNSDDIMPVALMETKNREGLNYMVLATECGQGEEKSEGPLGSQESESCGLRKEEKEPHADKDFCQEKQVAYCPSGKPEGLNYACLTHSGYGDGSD
320 wild-type protein kinases (Homo sapiens, UniProt P30291), sequence (P30291 whole entry): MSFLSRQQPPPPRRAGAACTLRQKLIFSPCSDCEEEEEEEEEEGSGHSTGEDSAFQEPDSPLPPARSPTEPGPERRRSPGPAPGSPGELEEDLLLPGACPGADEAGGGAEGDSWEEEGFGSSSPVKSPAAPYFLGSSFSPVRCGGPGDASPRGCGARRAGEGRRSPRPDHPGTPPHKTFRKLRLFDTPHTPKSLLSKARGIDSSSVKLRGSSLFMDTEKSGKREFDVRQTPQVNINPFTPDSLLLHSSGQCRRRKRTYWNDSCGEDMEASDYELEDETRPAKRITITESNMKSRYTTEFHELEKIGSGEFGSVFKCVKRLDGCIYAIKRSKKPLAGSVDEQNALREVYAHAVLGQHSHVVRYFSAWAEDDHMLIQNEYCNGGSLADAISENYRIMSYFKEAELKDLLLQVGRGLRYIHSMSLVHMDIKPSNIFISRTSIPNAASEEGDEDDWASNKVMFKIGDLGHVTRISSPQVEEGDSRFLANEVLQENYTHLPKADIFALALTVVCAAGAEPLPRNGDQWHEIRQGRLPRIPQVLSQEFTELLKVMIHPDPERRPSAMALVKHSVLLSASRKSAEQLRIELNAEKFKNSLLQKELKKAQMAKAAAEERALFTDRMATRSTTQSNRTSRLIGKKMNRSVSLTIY
320 wild-type protein kinases (Homo sapiens, UniProt Q9NYL2), sequence (Q9NYL2 whole entry): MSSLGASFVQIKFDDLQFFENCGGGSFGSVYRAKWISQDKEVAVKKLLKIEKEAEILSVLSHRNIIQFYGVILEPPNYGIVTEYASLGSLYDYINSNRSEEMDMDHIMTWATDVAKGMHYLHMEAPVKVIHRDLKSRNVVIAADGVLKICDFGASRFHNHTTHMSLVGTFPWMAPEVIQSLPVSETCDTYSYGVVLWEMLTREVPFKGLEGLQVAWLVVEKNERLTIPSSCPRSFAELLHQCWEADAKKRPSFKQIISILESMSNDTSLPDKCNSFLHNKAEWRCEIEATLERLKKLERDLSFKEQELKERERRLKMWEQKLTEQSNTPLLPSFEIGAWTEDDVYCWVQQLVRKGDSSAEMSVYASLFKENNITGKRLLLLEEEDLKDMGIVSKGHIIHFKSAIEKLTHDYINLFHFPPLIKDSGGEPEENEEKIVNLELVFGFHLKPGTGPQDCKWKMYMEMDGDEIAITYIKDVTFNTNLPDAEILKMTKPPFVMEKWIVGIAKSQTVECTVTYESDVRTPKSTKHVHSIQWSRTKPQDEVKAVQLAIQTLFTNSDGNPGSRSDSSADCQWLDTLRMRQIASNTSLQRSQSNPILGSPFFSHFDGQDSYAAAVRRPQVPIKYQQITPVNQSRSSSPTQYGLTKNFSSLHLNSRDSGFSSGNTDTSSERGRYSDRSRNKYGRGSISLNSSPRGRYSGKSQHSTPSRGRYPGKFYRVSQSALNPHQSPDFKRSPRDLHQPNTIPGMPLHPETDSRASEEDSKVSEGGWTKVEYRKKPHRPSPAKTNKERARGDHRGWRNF

SMILES | IC50 (U-CH1 chordoma cell line) | IC50 [1] | IC50 [2] | IC50 [3] | Residual activity, RPS6KA5 ([4]; assay conc. 1.0E-06 M) | Residual activity, RPS6KA5 ([4]; assay conc. 1.0E-07 M) | Residual activity ([5]; 1.0E-06 M) | Residual activity ([5]; 1.0E-07 M) | Residual activity, ROS ([6]; assay conc. 1.0E-06 M) | Residual activity, ROS ([6]; assay conc. 1.0E-07 M) | Residual activity, WEE1 ([7]; assay conc. 1.0E-06 M) | Residual activity, WEE1 ([7]; assay conc. 1.0E-07 M) | Residual activity ([8]; ACV-RL1, 1.0E-06 M) | Residual activity ([8]; ACV-RL1, 1.0E-07 M) | Residual activity, PRKX ([9]; assay conc. 1.0E-06 M) | Residual activity, PRKX ([9]; assay conc. 1.0E-07 M) | Residual activity ([10]; GRK7, 1.0E-06 M) | Residual activity ([10]; GRK7, 1.0E-07 M) | Residual activity, SGK2 ([11]; assay conc. 1.0E-06 M) | Residual activity, SGK2 ([11]; assay conc. 1.0E-07 M) | further results
C#Cc1cc(Nc2ncnc3cc(I)ccc23)ccc1Cl [Compound 41] | 9.1 µM | 25 µM | 0.96 µM | 36 µM | 99 % of control | 112 % of control | 103 % of control | 109 % of control | 88 % of control | 95 % of control | 87 % of control | 112 % of control | 105 % of control | 102 % of control | 123 % of control | 138 % of control | 116 % of control | 124 % of control | 86 % of control | 101 % of control | Residual activity, ZAK ([12]; assay conc. 1.0E-06 M): 85 % of control; Residual activity, ZAK ([12]; assay conc. 1.0E-07 M): 98 % of control; IC50 (EGFR; [13]): 3.7 µM
C#Cc1cc(Nc2ncnc3cc(OC)c(OC)cc23)ccc1Cl [Compound 45] | > 100 µM | 60 µM | 3 µM | > 100 µM | 107 % of control | 104 % of control | 101 % of control | 122 % of control | 89 % of control | 96 % of control | 76 % of control | 109 % of control | 106 % of control | 110 % of control | 118 % of control | 117 % of control | 121 % of control | 115 % of control | 98 % of control | 94 % of control | Residual activity, ZAK ([12]; assay conc. 1.0E-06 M): 80 % of control; Residual activity, ZAK ([12]; assay conc. 1.0E-07 M): 100 % of control; IC50 (EGFR; [13]): 0.018 µM; IC50 (EGFR; in-cell EGFR inhibition): < 0.1 µM
